Reference: patent US20120101032A1, “NOVEL MACROCYCLIC INHIBITORS OF HEPATITIS C VIRUS REPLICATION” (priority 2010, published 2012)

How the values were obtained:
[1] = target: NS3/NS4 complexes (Hepatitis C virus genotype 1a, UniProt P27958); assay: biochemical; conditions: NS3-NS4 activity; 23° C., pH 7.5, 25 μM NS4A peptide; read-out: IC50
Text: NS3-NS4 inhibition activity can be determined using known assay methods. For example, NS3/NS4 complexes may be formed and inhibitory concentrations of test compounds determined as described in U.S. Patent Application Publication Number 2007/0054842 paragraph numbers 1497-1509, which is incorporated herein by reference in its entirety. Similarly, hepatitis C replicon EC50 may be determined using known assay methods such as described in U.S. Patent Application Publication Number 2007/0054842 paragraph numbers 1510-1515, which is incorporated herein by reference in its entirety. Assays may be conducted at ambient temperature (23° C.) in assay buffer containing 50 mM Tris-HCl, pH 7.5, 15% glycerol, 0.6 mM Lauryldimethylamine Oxide (LDAO), 25 μM NS4A peptide, and 10 mM Dithiothreitol (DTT).

[2] = test system: hepatitis C replicon; assay: hepatitis C replicon EC50 assay; format: cell-based; conditions: Hepatitis C virus; hepatitis C replicon; read-out: EC50
Text: NS3-NS4 inhibition activity can be determined using known assay methods.

Sequence of NS3/NS4 complexes (P27958 1027-1657, one chain of several): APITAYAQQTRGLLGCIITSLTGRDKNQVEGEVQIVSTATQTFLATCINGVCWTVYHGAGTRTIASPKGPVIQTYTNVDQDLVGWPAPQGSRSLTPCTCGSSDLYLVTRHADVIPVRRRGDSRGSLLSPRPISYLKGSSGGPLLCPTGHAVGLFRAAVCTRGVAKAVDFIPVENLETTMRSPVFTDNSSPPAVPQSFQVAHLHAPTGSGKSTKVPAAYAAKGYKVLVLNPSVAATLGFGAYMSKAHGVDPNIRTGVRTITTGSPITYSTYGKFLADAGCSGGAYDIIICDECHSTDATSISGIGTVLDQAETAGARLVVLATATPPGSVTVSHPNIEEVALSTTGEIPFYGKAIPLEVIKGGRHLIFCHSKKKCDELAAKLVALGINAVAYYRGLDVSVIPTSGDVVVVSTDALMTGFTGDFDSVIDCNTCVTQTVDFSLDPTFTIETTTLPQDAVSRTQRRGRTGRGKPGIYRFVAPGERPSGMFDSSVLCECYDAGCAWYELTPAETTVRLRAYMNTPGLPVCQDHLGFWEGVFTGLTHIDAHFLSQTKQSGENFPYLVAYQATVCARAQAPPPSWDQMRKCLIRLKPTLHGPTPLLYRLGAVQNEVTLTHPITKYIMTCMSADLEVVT

SMILES | IC50 [1] [nM] | EC50 [2] [nM]
CC(C)c1ccc(Cc2csc(-c3cccc4c3nc(O[C@@H]3C[C@H]5C(=O)N[C@]6(C(=O)NS(=O)(=O)C7(C)CC7)C[C@H]6/C=C\CCCCC[C@H](NC(=O)OC(C)(C)C)C(=O)N5C3)n4C(C)C)n2)cc1 [Compound 116] | < 10 | 10 to 100
CC(C)n1c(O[C@@H]2C[C@H]3C(=O)N[C@]4(C(=O)NS(=O)(=O)C5(C)CC5)C[C@H]4/C=C\CCCCC[C@H](NC(=O)OC(C)(C)C)C(=O)N3C2)nc2c(-c3nc(Cc4cccc(Br)c4)cs3)cccc21 [Compound 117] | < 10 | 10 to 100
CC(C)n1c(O[C@@H]2C[C@H]3C(=O)N[C@]4(C(=O)NS(=O)(=O)C5(C)CC5)C[C@H]4/C=C\CCCCC[C@H](NC(=O)OC(C)(C)C)C(=O)N3C2)nc2c(-c3nc(Cc4ccc(-c5ccccc5)cc4)cs3)cccc21 [Compound 118] | < 10 | < 10
CC(C)n1c(O[C@@H]2C[C@H]3C(=O)N[C@]4(C(=O)NS(=O)(=O)C5(C)CC5)C[C@H]4/C=C\CCCCC[C@H](NC(=O)OC(C)(C)C)C(=O)N3C2)nc2c(-c3nc(Cc4cccc(C(F)(F)F)c4)cs3)cccc21 [Compound 119] | < 10 | 10 to 100
CC(C)n1c(O[C@@H]2C[C@H]3C(=O)N[C@]4(C(=O)NS(=O)(=O)C5(C)CC5)C[C@H]4/C=C\CCCCC[C@H](NC(=O)OC(C)(C)C)C(=O)N3C2)nc2c(-c3nc(Cc4cccc(OC(F)(F)F)c4)cs3)cccc21 [Compound 120] | < 10 | 10 to 100
CC(C)n1c(O[C@@H]2C[C@H]3C(=O)N[C@]4(C(=O)NS(=O)(=O)C5(C)CC5)C[C@H]4/C=C\CCCCC[C@H](NC(=O)OC(C)(C)C)C(=O)N3C2)nc2c(-c3nc(Cc4ccc(OC(F)(F)F)cc4)cs3)cccc21 [Compound 121] | < 10 | 10 to 100
CC(C)n1c(O[C@@H]2C[C@H]3C(=O)N[C@]4(C(=O)NS(=O)(=O)C5(C)CC5)C[C@H]4/C=C\CCCCC[C@H](NC(=O)OC(C)(C)C)C(=O)N3C2)nc2c(-c3nc(Cc4ccc(Cl)cc4)cs3)cccc21 [Compound 122] | < 10 | > 100
COc1cccc(Cc2csc(-c3cccc4c3nc(O[C@@H]3C[C@H]5C(=O)N[C@]6(C(=O)NS(=O)(=O)C7(C)CC7)C[C@H]6/C=C\CCCCC[C@H](NC(=O)OC(C)(C)C)C(=O)N5C3)n4C(C)C)n2)c1 [Compound 123] | < 10 | < 10
COc1ccc(Cc2csc(-c3cccc4c3nc(O[C@@H]3C[C@H]5C(=O)N[C@]6(C(=O)NS(=O)(=O)C7(C)CC7)C[C@H]6/C=C\CCCCC[C@H](NC(=O)OC(C)(C)C)C(=O)N5C3)n4C(C)C)n2)cc1 [Compound 124] | < 10 | < 10
CC(C)n1c(O[C@@H]2C[C@H]3C(=O)N[C@]4(C(=O)NS(=O)(=O)C5(C)CC5)C[C@H]4/C=C\CCCCC[C@H](NC(=O)OC(C)(C)C)C(=O)N3C2)nc2c(-c3csc(N4CCCC4)n3)cccc21 [Compound 125] | < 10 | < 10
CC(C)n1c(O[C@@H]2C[C@H]3C(=O)N[C@]4(C(=O)NS(=O)(=O)C5(C)CC5)C[C@H]4/C=C\CCCCC[C@H](NC(=O)OC(C)(C)C)C(=O)N3C2)nc2c(-c3cnccn3)cccc21 [Compound 126] | < 10 | < 10
CC(C)n1c(O[C@@H]2C[C@H]3C(=O)N[C@]4(C(=O)NS(=O)(=O)C5(C)CC5)C[C@H]4/C=C\CCCCC[C@H](NC(=O)OC(C)(C)C)C(=O)N3C2)nc2c(-c3csc(N4CCN(C)CC4)n3)cccc21 [Compound 127] | < 10 | < 10
CC(C)n1c(O[C@@H]2C[C@H]3C(=O)N[C@]4(C(=O)NS(=O)(=O)C5(C)CC5)C[C@H]4/C=C\CCCCC[C@H](NC(=O)OC(C)(C)C)C(=O)N3C2)nc2c(-c3cncc(N4CCCC4)n3)cccc21 [Compound 128] | < 10 | < 10
CC(C)n1c(O[C@@H]2C[C@H]3C(=O)N[C@]4(C(=O)NS(=O)(=O)C5(C)CC5)C[C@H]4/C=C\CCCCC[C@H](NC(=O)OC(C)(C)C)C(=O)N3C2)nc2c(-c3cscn3)cccc21 [Compound 129] | < 10 | < 10
CC(C)n1c(O[C@@H]2C[C@H]3C(=O)N[C@]4(C(=O)NS(=O)(=O)N(C)C)C[C@H]4/C=C\CCCCC[C@H](NC(=O)OC(C)(C)C)C(=O)N3C2)nc2c(-c3nc(-c4cccc(Cl)c4)cs3)cccc21 [Compound 130] | < 10 | 10 to 100
COc1ccccc1-c1csc(-c2cccc3c2nc(O[C@@H]2C[C@H]4C(=O)N[C@]5(C(=O)NS(=O)(=O)N(C)C)C[C@H]5/C=C\CCCCC[C@H](NC(=O)OC(C)(C)C)C(=O)N4C2)n3C(C)C)n1 [Compound 131] | < 10 | 10 to 100
COc1cccc(-c2csc(-c3cccc4c3nc(O[C@@H]3C[C@H]5C(=O)N[C@]6(C(=O)NS(=O)(=O)N(C)C)C[C@H]6/C=C\CCCCC[C@H](NC(=O)OC(C)(C)C)C(=O)N5C3)n4C(C)C)n2)c1 [Compound 132] | < 10 | 10 to 100

SMILES | IC50 [1] [nM] | EC50 [2] [nM]
CC(C)n1c(O[C@@H]2C[C@H]3C(=O)N[C@]4(C(=O)NS(=O)(=O)N(C)C)C[C@H]4/C=C\CCCCC[C@H](NC(=O)OC(C)(C)C)C(=O)N3C2)nc2c(-c3nc(-c4cccc(F)c4)cs3)cccc21 [Compound 133] | < 10 | 10 to 100
CC(C)n1c(O[C@@H]2C[C@H]3C(=O)N[C@]4(C(=O)NS(=O)(=O)N(C)C)C[C@H]4/C=C\CCCCC[C@H](NC(=O)OC(C)(C)C)C(=O)N3C2)nc2c(-c3nc(-c4ccc(F)cc4)cs3)cccc21 [Compound 134] | < 10 | 10 to 100
CC(C)n1c(O[C@@H]2C[C@H]3C(=O)N[C@]4(C(=O)NS(=O)(=O)N(C)C)C[C@H]4/C=C\CCCCC[C@H](NC(=O)OC(C)(C)C)C(=O)N3C2)nc2c(-c3nc(-c4ccc(F)c(C(F)(F)F)c4)cs3)cccc21 [Compound 135] | < 10 | > 100
CC(C)n1c(O[C@@H]2C[C@H]3C(=O)N[C@]4(C(=O)NS(=O)(=O)N(C)C)C[C@H]4/C=C\CCCCC[C@H](NC(=O)OC(C)(C)C)C(=O)N3C2)nc2c(-c3nc(-c4ccc(OC(F)(F)F)cc4)cs3)cccc21 [Compound 136] | < 10 | > 100
CC(C)n1c(O[C@@H]2C[C@H]3C(=O)N[C@]4(C(=O)NS(=O)(=O)N(C)C)C[C@H]4/C=C\CCCCC[C@H](NC(=O)OC(C)(C)C)C(=O)N3C2)nc2c(-c3nc(-c4ccc(Br)cc4)cs3)cccc21 [Compound 137] | < 10 | > 100
CC(C)n1c(O[C@@H]2C[C@H]3C(=O)N[C@]4(C(=O)NS(=O)(=O)N(C)C)C[C@H]4/C=C\CCCCC[C@H](NC(=O)OC(C)(C)C)C(=O)N3C2)nc2c(-c3nc(-c4ccc(Cl)c(Cl)c4)cs3)cccc21 [Compound 138] | < 10 | > 100
CC(C)n1c(O[C@@H]2C[C@H]3C(=O)N[C@]4(C(=O)NS(=O)(=O)N(C)C)C[C@H]4/C=C\CCCCC[C@H](NC(=O)OC(C)(C)C)C(=O)N3C2)nc2c(-c3nc(-c4ccc(F)cc4F)cs3)cccc21 [Compound 139] | < 10 | 10 to 100
CC(C)n1c(O[C@@H]2C[C@H]3C(=O)N[C@]4(C(=O)NS(=O)(=O)N(C)C)C[C@H]4/C=C\CCCCC[C@H](NC(=O)OC(C)(C)C)C(=O)N3C2)nc2c(-c3nc(-c4ccc(F)c(F)c4)cs3)cccc21 [Compound 140] | < 10 | < 10
CC(C)n1c(O[C@@H]2C[C@H]3C(=O)N[C@]4(C(=O)NS(=O)(=O)N(C)C)C[C@H]4/C=C\CCCCC[C@H](NC(=O)OC(C)(C)C)C(=O)N3C2)nc2c(-c3nc(-c4ccc(C(F)(F)F)cc4)cs3)cccc21 [Compound 141] | < 10 | > 100
CC(C)n1c(O[C@@H]2C[C@H]3C(=O)N[C@]4(C(=O)NS(=O)(=O)N(C)C)C[C@H]4/C=C\CCCCC[C@H](NC(=O)OC(C)(C)C)C(=O)N3C2)nc2c(-c3nc(-c4ccc5c(c4)OCCO5)cs3)cccc21 [Compound 142] | < 10 | 10 to 100
CC(C)n1c(O[C@@H]2C[C@H]3C(=O)N[C@]4(C(=O)NS(=O)(=O)N(C)C)C[C@H]4/C=C\CCCCC[C@H](NC(=O)OC(C)(C)C)C(=O)N3C2)nc2c(-c3nc(-c4ccc(C(C)(C)C)cc4)cs3)cccc21 [Compound 143] | < 10 | 10 to 100
Cc1cccc(Cc2csc(-c3cccc4c3nc(O[C@@H]3C[C@H]5C(=O)N[C@]6(C(=O)NS(=O)(=O)N(C)C)C[C@H]6/C=C\CCCCC[C@H](NC(=O)OC(C)(C)C)C(=O)N5C3)n4C(C)C)n2)c1 [Compound 144] | < 10 | < 10
Cc1ccc(Cc2csc(-c3cccc4c3nc(O[C@@H]3C[C@H]5C(=O)N[C@]6(C(=O)NS(=O)(=O)N(C)C)C[C@H]6/C=C\CCCCC[C@H](NC(=O)OC(C)(C)C)C(=O)N5C3)n4C(C)C)n2)cc1 [Compound 146] | < 10 | < 10
COc1ccccc1Cc1csc(-c2cccc3c2nc(O[C@@H]2C[C@H]4C(=O)N[C@]5(C(=O)NS(=O)(=O)N(C)C)C[C@H]5/C=C\CCCCC[C@H](NC(=O)OC(C)(C)C)C(=O)N4C2)n3C(C)C)n1 [Compound 147] | < 10 | < 10
CC(C)c1ccc(Cc2csc(-c3cccc4c3nc(O[C@@H]3C[C@H]5C(=O)N[C@]6(C(=O)NS(=O)(=O)N(C)C)C[C@H]6/C=C\CCCCC[C@H](NC(=O)OC(C)(C)C)C(=O)N5C3)n4C(C)C)n2)cc1 [Compound 148] | < 10 | 10 to 100
CC(C)n1c(O[C@@H]2C[C@H]3C(=O)N[C@]4(C(=O)NS(=O)(=O)N(C)C)C[C@H]4/C=C\CCCCC[C@H](NC(=O)OC(C)(C)C)C(=O)N3C2)nc2c(-c3nc(Cc4cccc(C(F)(F)F)c4)cs3)cccc21 [Compound 149] | < 10 | 10 to 100
